Experimental data reported in ChEMBL document CHEMBL3272336, “Potential histidine decarboxylase inhibitors. 1. alpha- and beta-substituted histidine analogues” (J Med Chem, 1977).
Blank lines part the entries; values can stand above or below the compound they belong to. Activity calls are given as the source filed them. The rule behind the calls is not given here.

How the values were obtained:
[1] = target: T1, Histidine decarboxylase (Rattus norvegicus) (UniProt P16453); assay: Inhibition of histidine decarboxylase in rat pyloric stomach using [carboxyl-14C]-histidine as substrate at 10^-3 M by 14CO2 trapping assay relative to control; format: tissue-based
T1 sequence (whole entry): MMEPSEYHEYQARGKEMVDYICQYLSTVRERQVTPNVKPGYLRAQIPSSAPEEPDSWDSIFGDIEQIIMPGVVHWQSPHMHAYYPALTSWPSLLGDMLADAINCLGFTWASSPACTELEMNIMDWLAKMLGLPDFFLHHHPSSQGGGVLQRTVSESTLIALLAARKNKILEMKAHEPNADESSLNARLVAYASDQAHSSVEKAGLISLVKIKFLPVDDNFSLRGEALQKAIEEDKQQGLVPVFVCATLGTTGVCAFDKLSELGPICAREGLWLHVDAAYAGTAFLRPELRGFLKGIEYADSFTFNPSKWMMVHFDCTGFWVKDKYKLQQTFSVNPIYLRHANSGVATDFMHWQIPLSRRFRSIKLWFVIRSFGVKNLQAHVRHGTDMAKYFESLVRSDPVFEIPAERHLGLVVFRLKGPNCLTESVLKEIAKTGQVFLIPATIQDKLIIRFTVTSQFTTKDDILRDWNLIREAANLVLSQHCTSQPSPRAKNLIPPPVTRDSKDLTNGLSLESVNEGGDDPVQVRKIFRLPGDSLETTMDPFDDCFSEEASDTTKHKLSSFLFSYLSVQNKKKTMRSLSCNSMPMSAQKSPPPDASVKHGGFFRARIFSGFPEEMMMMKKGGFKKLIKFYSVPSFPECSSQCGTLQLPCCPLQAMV

[2] = target: T1, Histidine decarboxylase (Rattus norvegicus); assay: Inhibition of histidine decarboxylase in rat pyloric stomach using [carboxyl-14C]-histidine as substrate at 10^-4 M by 14CO2 trapping assay relative to control; format: tissue-based

SMILES: N[C@@]1(Cc2c[nH]cn2)CCOC1=O
- inhibition [1]: 19%
- inhibition [2]: 12%

SMILES: CC(C)(c1c[nH]cn1)[C@H](N)C(=O)O
- inhibition [1]: 0%

SMILES: CC(c1c[nH]cn1)[C@H](N)C(=O)O (some centres not stated)
- inhibition [2]: inactive

SMILES: NC(CCc1c[nH]cn1)C(=O)O (configuration not stated)
- inhibition [1]: 0%

Second part, the compound after the results:

- inhibition [1]: 40%
- inhibition [2]: 30%
SMILES: C[C@](N)(Cc1c[nH]cn1)C(=O)O

- inhibition [1]: 14%
- inhibition [2]: 6%
SMILES: CC[C@](N)(Cc1c[nH]cn1)C(=O)O

- inhibition [1]: 0%
SMILES: CCCC[C@](N)(Cc1c[nH]cn1)C(=O)O

- inhibition [1]: 1%
- inhibition [2]: 0%
SMILES: CC(C)[C@](N)(Cc1c[nH]cn1)C(=O)O
